{"source": "patent US20100215710A1", "about": "“Beta-2 Adrenergic Receptor Agonists and Antagonists and Modulation of Wound Healing” (The Regents of the University of California, priority 2005, published 2010)", "test_system": "human keratinocytes", "experiment": "Single cell migration assay, keratinocytes (clenbuterol, OA)", "format": "cell-based", "experimental": "All single cell migration assays were performed on cells plated on glass cover-slips inserted into 35 mm plastic dishes (MatTek Corp., Ashland, Mass.) that had been coated for 1 hour at 37° C. with 60 μg/ml collagen L Cells were plated onto the collagen-coated glass cover-slips at a density of 250 cells/mm^2 for 3-6 hours at 37° C. Cells were either untreated (control), pre-treated with 10 nM okadaic acid (OA) (10 nM) for 45 minutes prior to the addition of OA (10 nM) and clenbuterol (1 μM) (OA/Clen) or treated with either OA or clenbuterol (1 μM) alone at time 0. The dishes were inserted into metal plates, maintained at 37° C., on inverted Nikon Diaphot microscopes to monitor single cell migration. Time-lapse images of the cell migratory response were digitally captured every 10 minutes over a one-hour period by Q-Imaging Retiga-EX cameras (Burnaby, BC, Canada) controlled by a custom automation written in Improvision Open Lab software (Lexington, Mass.) on a Macintosh G4. After each cell's center of mass was tracked using the Open Lab software, migration speed and distance were calculated and imported to Excel (Microsoft Corporation, Redmond, Wash.). Significance was taken as p<0.01, using Student's t test (unpaired) to compare the means of the control and β-AR agonist-treated cell populations.\nKeratinocytes were plated onto collagen-coated glass cover-slips at a concentration of 250 cells/mm^2 in KGM for 3-6 hours at 37° C. The migration of each single cell was monitored over a one-hour period, and the results were analyzed in excel as described. The speed of migration ([…]) is represented graphically in FIG. 1 Panel C, control n=57, clenbuterol n=57, OA n=60, OA-clenbuterol n=44. The data are representative of three independent experiments with at least two different keratinocyte strains. * P<0.01 between β-AR agonist and controls; #P<0.01 between OA-clenbuterol and clenbuterol alone.", "data": [{"smiles": "C=C1[C@@H](O)[C@@H]2O[C@]3(CC[C@H](/C=C/[C@@H](C)[C@@H]4CC(C)=C[C@@]5(O[C@H](C[C@@](C)(O)C(=O)O)CC[C@H]5O)O4)O3)CC[C@H]2O[C@@H]1[C@@H](O)C[C@H](C)[C@H]1O[C@@]2(CCCCO2)CC[C@H]1C", "note": "[OA, okadaic acid]", "values": [{"measurement": "effect on keratinocyte migration", "setting": "OA 10 nM alone", "result": "no effect"}, {"measurement": "effect on clenbuterol-induced reduction in speed", "setting": "OA 10 nM pre-treatment, then OA plus 1 μM clenbuterol", "result": "completely prevents"}]}]}
